Experiment [1] addresses T1, K103N/Y181C double mutant RT (HIV-1 RT) (Human immunodeficiency virus type 1 group M subtype B, UniProt P03366, K702N/Y780C).
T1 construct: mutations that occur in the reverse transcriptase segment of the pol gene
The experiment can be described thus: biochemical.

Experiment [2] has as its target T2, V106A mutant RT (HIV-1 RT) (Human immunodeficiency virus type 1 group M subtype B, UniProt P03366, V705A).
T2 construct: mutations that occur in the reverse transcriptase segment of the pol gene
Kind of experiment: biochemical. To be noted: IC50 V106A (nM).

The target in the next experiment is T3, WT RT (HIV-1 RT) (Human immunodeficiency virus type 1 group M subtype B, UniProt P03366).
T3 construct: mutations that occur in the reverse transcriptase segment of the pol gene
Kind of experiment: biochemical.

The target of experiment [3] is T4, Y188L mutant RT (HIV-1 RT) (Human immunodeficiency virus type 1 group M subtype B, UniProt P03366, Y787L).
T4 construct: mutations that occur in the reverse transcriptase segment of the pol gene
The experiment can be described thus: biochemical. To be noted: IC50 Y188L (nM).

The subject of experiment [4] is WT RT (HIV-1 wild type strain). The experiment can be described thus: EC50 assay, WT RT strain. To be noted: Human immunodeficiency virus 1, read-out: EC50 WT RT (nM). In kind it is cell-based. The text has this: (§1) Reverse TranscriptASE (RT) Assays
(§2) The assays are as described in WO 01/96338A1, the contents of which are hereby incorporated herein. The results are listed in Tables 8 as IC50(nM) and EC50(nM).

Experiment [5] has as its system V106A (HIV-1 mutant strain). The experiment can be described thus: EC50 assay, V106A strain. In kind it is cell-based. To be noted: Human immunodeficiency virus 1, read-out: EC50 V106A (nM).
Excerpt: as §1, §2

The subject of experiment [6] is K103N/Y181C (HIV-1 double mutant strain). The experiment can be described thus: EC50 assay, K103N/Y181C strain. Type of experiment: cell-based. To be noted: Human immunodeficiency virus 1, read-out: EC50 K103N/Y181C (nM), K103N/Y181C double mutant.
Excerpt: as §1, §2

Each structure is given as a SMILES string. A value given as a limit tells only on which side of the number the result lay.

A word on the IC50: it is the point on the concentration scale where inhibition reaches its midpoint. Low values mean greater potency, high ones weaker potency.

For `CCN1c2ncc(CCOc3ccc(NS(=O)(=O)C(F)(F)F)c4ccccc34)cc2C(=O)N(C)c2ccc(F)nc21` [Entry 2002], the IC50 in experiment [1] was 100 to 1000 nM; in experiment [2] it was over 1000 nM; on WT RT (HIV-1 RT), under 100 nM; in experiment [3] it was over 1000 nM. Besides, the values for the EC50 in experiment [4], in experiment [5] and in experiment [6] were under 100 nM, 100 to 1000 nM and under 100 nM, respectively.
For the compound `CCN1c2ncc(CCOc3ccc(C(=O)O)c4c3CCC4)cc2C(=O)N(C)c2ccc(Cl)nc21` [Entry 4002], the IC50 in experiment [1] was under 100 nM; in experiment [2] it was 100 to 1000 nM; at WT RT (HIV-1 RT), under 100 nM; in experiment [3], 100 to 1000 nM. Moreover, the EC50 in experiment [4] and in experiment [6] was under 100 nM in each case.
As to `CCN1c2ncc(CCOc3ccc(C(=O)O)c4c3CCCC4)cc2C(=O)N(C)c2cccnc21` [Entry 5001], the 50% inhibitory concentration (IC50) in experiment [1] is 100 to 1000 nM; in experiment [2] it was over 1000 nM; on WT RT (HIV-1 RT), under 100 nM; in experiment [3], over 1000 nM. The EC50 in experiment [4] is under 100 nM; in experiment [5] it was 100 to 1000 nM; in experiment [6] it was under 100 nM.
With `CCN1c2ncc(CCOc3ccc(C(=O)O)c4c3CCCC4)cc2C(=O)N(C)c2ccc(Cl)nc21` [Entry 5002], the IC50 in experiment [1] was 100 to 1000 nM; in experiment [2], over 1000 nM; against WT RT (HIV-1 RT), under 100 nM; in experiment [3], 100 to 1000 nM. For the same compound, the EC50 in experiment [4] and in experiment [6] was under 100 nM throughout.
`CCN1c2ncc(CCOc3ccc(C(=O)O)c4c3CCCC4)cc2C(=O)N(C)c2ccc(F)nc21` [Entry 5003]: the IC50 in experiment [1] is 100 to 1000 nM; in experiment [2], over 1000 nM; at WT RT (HIV-1 RT), under 100 nM; in experiment [3], 100 to 1000 nM. For the same compound, the EC50 in experiment [4] and in experiment [6] was under 100 nM throughout.
Consider `CCN1c2ncc(CCOc3ccc(C(=O)O)c4c3CCCC4)cc2C(=O)N(C)c2ccc(C)nc21` [Entry 5004], for which the half-inhibitory concentration (IC50) in experiment [1] is 100 to 1000 nM; in experiment [2], over 1000 nM; at WT RT (HIV-1 RT), under 100 nM; in experiment [3], 100 to 1000 nM. The EC50 in experiment [4] and in experiment [6] was under 100 nM each time.
Regarding `CCN1c2ncc(CCOc3ccc(C(=O)O)c4c3CCCC4)cc2C(=O)N(C)c2ccc(OC)nc21` [Entry 5005], the IC50 in experiment [1] is 100 to 1000 nM; in experiment [2], over 1000 nM; on WT RT (HIV-1 RT), under 100 nM; in experiment [3], 100 to 1000 nM. The EC50 in experiment [4] and in experiment [6] was under 100 nM in each case.
As to `CCN1c2ncc(CCOc3ccc(CC(=O)O)c4c3CCCC4)cc2C(=O)N(C)c2ccc(Cl)nc21` [Entry 5007], the half-maximal inhibitory concentration (IC50) in experiment [1] is 100 to 1000 nM; in experiment [2], 100 to 1000 nM; against WT RT (HIV-1 RT), under 100 nM; in experiment [3] it was 100 to 1000 nM. The EC50 in experiment [4] and in experiment [6] was under 100 nM each time.
With `CCN1c2ncc(CCOc3ccc(CC(=O)O)c4c3CCCC4)cc2C(=O)N(C)c2ccc(F)nc21` [Entry 5008], the half-inhibitory concentration (IC50) in experiment [1] is 100 to 1000 nM; in experiment [2], over 1000 nM; at WT RT (HIV-1 RT) it was under 100 nM; in experiment [3], over 1000 nM. Moreover, the EC50 in experiment [4] and in experiment [6] was under 100 nM throughout.
Take `CCN1c2ncc(CCOc3ccc(CCC(=O)O)c4c3CCCC4)cc2C(=O)N(C)c2cccnc21` [Entry 5009]: the IC50 in experiment [1] is 100 to 1000 nM; in experiment [2] it was over 1000 nM; against WT RT (HIV-1 RT) it was under 100 nM; in experiment [3], over 1000 nM. In addition, the EC50 in experiment [4] and in experiment [6] was under 100 nM each time.
Turning to `CCN1c2ncc(CCOc3ccc(CCC(=O)O)c4c3CCCC4)cc2C(=O)N(C)c2ccc(Cl)nc21` [Entry 5010], the 50% inhibitory concentration (IC50) in experiment [1] was 100 to 1000 nM; in experiment [2], over 1000 nM; against WT RT (HIV-1 RT) it was under 100 nM; in experiment [3], 100 to 1000 nM. Besides, the EC50 in experiment [4] and in experiment [6] was under 100 nM each time.
Take `CCN1c2ncc(CCOc3ccc(C(=O)O)c4c3CCN(C(=O)OC)C4)cc2C(=O)N(C)c2cccnc21` [Entry 7002]: the half-inhibitory concentration (IC50) in experiment [1] is 100 to 1000 nM; in experiment [2], over 1000 nM; against WT RT (HIV-1 RT) it was under 100 nM; in experiment [3] it was 100 to 1000 nM. Also, the EC50 was under 100 nM in experiment [4], 100 to 1000 nM in experiment [5] and under 100 nM in experiment [6].
As to `CCN1c2ncc(CCOc3ccc(C(=O)O)c4c3CCN(C(=O)OC(C)(C)C)C4)cc2C(=O)N(C)c2cccnc21` [Entry 7003], the half-inhibitory concentration (IC50) was 100 to 1000 nM in experiment [1], over 1000 nM in experiment [2], under 100 nM on WT RT (HIV-1 RT) and 100 to 1000 nM in experiment [3]. In addition, the EC50 in experiment [4] and in experiment [6] was under 100 nM throughout.
Turning to `CCNC(=O)N1CCc2c(OCCc3cnc4c(c3)C(=O)N(C)c3cccnc3N4CC)ccc(C(=O)O)c2C1` [Entry 7006], the concentration for half-maximal inhibition (IC50) in experiment [1] is 100 to 1000 nM; in experiment [2] it was 100 to 1000 nM; against WT RT (HIV-1 RT) it was under 100 nM; in experiment [3], over 1000 nM. In addition, the EC50 in experiment [4] is 100 to 1000 nM; in experiment [6], over 1000 nM.
As to `CCN1c2ncc(CCOc3ccc(C(=O)O)c4c3CCN(C(=O)N(C)C)C4)cc2C(=O)N(C)c2cccnc21` [Entry 7007], the IC50 in experiment [1] is under 100 nM; in experiment [2], 100 to 1000 nM; on WT RT (HIV-1 RT), under 100 nM; in experiment [3] it was 100 to 1000 nM. Besides, the EC50 in experiment [4] and in experiment [6] was under 100 nM in each case.
For `CCN1c2ncc(CCOc3ccc(C(=O)O)c4c3CCN(S(=O)(=O)N(C)C)C4)cc2C(=O)N(C)c2cccnc21` [Entry 7008], the 50% inhibitory concentration (IC50) in experiment [1] was under 100 nM; in experiment [2], 100 to 1000 nM; against WT RT (HIV-1 RT) it was under 100 nM; in experiment [3], 100 to 1000 nM. Also, the EC50 in experiment [4] and in experiment [6] was under 100 nM throughout.

The values above are taken from patent publication US6673791B2, “Non-nucleoside reverse transcriptase inhibitors” (Boehringer Ingelheim (Canada) Ltd., priority 2001, dated 2004).
